From patent publication US10026660B2, “Method of etching the back of a wafer to expose TSVs” (priority 2014, dated 2018)

System: rat
Test: Rat dermal exposure toxicity (LD50)
Conditions: rat dermal exposure (skin contact)
Text: LD50 is the dosage for 50% or more of test rats to […] after skin contact with the test chemicals in a given time. Generally, the higher the LD50, the less toxic the chemical.

C[N+](C)(C)C.[OH-] [TMAH, Tetramethylammonium hydroxide]
LD50: 157 mg/kg
